Data published in paper PMC4559561, “Radioiodinated PARP1 tracers for glioblastoma imaging” (EJNMMI Research, 2015).
Several values for one entry are separate records, joined by “and”; a condition that tells them apart may be missing. Equal values may be shown once.

Legend:
[1] = Plasma protein fraction by rapid equilibrium dialysis in mouse serum; assay type: in vitro ADME; conditions: 10 μM compound in mouse serum vs PBS, 37 °C, read-out: Plasma Free Fraction
Protocol: The plasma protein fraction was determined using the Rapid Equilibrium Dialysis Device System (Life Technologies, Grand Island, NY) according to the manufacturer’s protocol. Membrane dialysis was performed with 10 μM of compound in mouse serum (500 μL) on one side of the membrane and PBS (750 μL) on the other side. The system was sealed with parafilm and incubated for 4 h at 37 °C on an orbital shaker set to 250 rpm. Thereafter, 400 μL of solution was taken from both sides, and samples were treated twice with an equal amount of AcN and vortexed to remove protein before HPLC analysis. After injection (100 μL), the I-PARPi peaks from each sample were then integrated and the protein bound fraction was determined. The data was analyzed using Prism 6.0c.

[2] = system: U87 MG subcutaneous tumors; test: In vivo blocking study: PARPi-FL uptake in tumors, ex vivo epifluorescence imaging; design: species or system mouse
Description: One hour post injection, the mice were sacrificed and the tumors were resected and imaged with the IVIS spectrum fluorescence imaging system (PerkinElmer, Waltham, MA) using Living Image 4.4 software. The tumors were also imaged microscopically with the 5Live fluorescent confocal microscope using the 488 nm laser for PARPi-FL excitation.

[3] = biological target: T1, PARP1 high specific activity (HSA) enzyme (Homo sapiens, UniProt P09874); test: PARP-1 IC50 determination, commercial colorimetric assay (Trevigen); assay type: biochemical; conditions: 0.5 U PARP1 HSA enzyme, 10 min, histone-coated plates, triplicate
T1 construct: purchased Trevigen, Gaithersburg, MD
Protocol: A commercially available colorimetric assay (Trevigen, Gaithersburg, MD) was used to measure PARP-1 activity in vitro in the presence of varying concentrations of the different iodo-[…]. […] All experiments were carried out in triplicate. […] All reaction mixtures were adjusted to a final volume of 50 μl, and a final concentration of 1 % DMSO in assay buffer. The remainder of the assay was performed according to the manufacturer's instructions. PARP1 activity was measured by absorbance at 450 nm in each well using a SpectraMax M5 spectrophotometer with SoftMax Pro software (Molecular Devices, Sunnyvale, CA).

[4] = Chemical hydrophobicity index (CHI) by reverse phase HPLC, Log P derived from CHI; assay type: physicochemical; conditions: for CHI (chromatographic hydrophobicity index): from HPLC retention time against standards
Protocol: Chemical hydrophobicity indices (CHIs) were measured using procedures developed previously. Briefly, reverse phase HPLC was used to measure the retention times of a set of standards with known CHI. A standard curve was then created to calculate the CHIs of all iodo-PARPi based on the HPLC retention time.

U87 MG cells = test: In vitro blocking study: competitive inhibition of PARPi-FL uptake; assay type: cell-based, human; conditions: 20 min
Protocol: U87 MG cells were seeded into a 96-well plate in a concentration of 1 × 10^4 cells per well. After 24 h, the cells were incubated with either the fluorescent PARP1 inhibitor PARPi-FL (250 nM) alone or with one of the iodo-PARPi inhibitors at a 100-fold higher concentration (25 μM) for 20 min. […] All incubation solutions also included Hoechst 33342 nuclear stain (Sigma-Aldrich, St. Louis, MO). The cells were washed twice with media and once with PBS for 5 min each and imaged on an LSM 5Live confocal microscope (Zeiss, Oberkochen, Germany). All wells were imaged with the DAPI filter for the Hoechst staining and the FITC filter for the PARPi-FL staining. The DAPI and FITC channels were co-registered, and the green fluorescence in the location of the Hoechst staining was quantified for each image. The percent reduction in PARPi-FL uptake was calculated based on the level of fluorescence intensity seen in each image and normalized to the cells receiving no iodo-PARPi inhibitor. Experiments were performed in triplicate.

[5] = In vitro whole blood stability; assay type: in vitro ADME; conditions: mouse blood, 37 °C, radio-HPLC
Protocol: The in vitro stability was assessed by incubating 6 μCi [^131I]-PARPi in mouse blood for 0 to 60 min at 37 °C. At baseline, 15, 30, and 60 min, the samples were immediately placed on ice and mixed 1:1 with a solution of AcN/DMSO (250 μL) and then vigorously vortexed for 30 s to precipitate out serum protein. The sample was centrifuged at 3000 RCF for 3 min at 4 °C, and the supernatant was collected. This procedure was repeated three times, and the combined supernatants were analyzed by HPLC equipped with radioactive detector (Shimadzu, Kyoto, Japan), collecting samples every 30 s. Radioactivity of each fraction was measured on a Wizard 2470 Automatic Gamma Counter (Perkin Elmer, Waltham, MA), and the blood stability was analyzed using Prism 6.0c (GraphPad Software, La Jolla, CA).

[6] = system: U87 MG subcutaneous xenografts; test: Biodistribution in U87 MG xenograft mice; assay type: in vivo, mouse; conditions: U87 MG tumor-bearing mice, 2 h post intravenous injection
Protocol: (§1) Biodistribution experiments were conducted on female nude mice (8–10 weeks old and 20–25 g in weight, n = 21) bearing U87 MG or U251 MG subcutaneous xenografts. The radiolabeled small molecule preparation ([…] of [^131I]-I2-PARPi in 200 μL of a solution 90 % PBS 10 % PEG300) was administrated via the lateral tail vein. To determine the optimal specific activity to achieve the highest tumor to organ ratio, various specific activities were tested (5, 50, and 250 mCi/μmol) in mice bearing U87 MG tumors. The compound was allowed to circulate for 2 h post injection at which time the mice were sacrificed and organs were harvested (n = 3). After determining the optimal specific activity, the optimal time for imaging was determined by testing the drug distribution in nude mice bearing U87 MG tumors at different time points. The drug was allowed to circulate for various times (1, 2, and 6 h), after which the mice were sacrificed (n = 3). The radioactive content in the tissue of interest (blood, tumor, muscle, bone, liver, spleen, kidney, heart, lung, pancreas, brain, skin, small intestine, large intestine, stomach, tail, thyroid, and feces) was measured on a Wizard 2470 Automatic Gamma Counter and the tissue-associated activity was calculated as the mean %ID/g.

[7] = system: U251 MG subcutaneous xenografts; test: Biodistribution in U251 MG xenograft mice; assay type: in vivo, mouse; conditions: 2 h after tracer injection
Protocol: as §1

[8] = Blood half-life by serial blood sampling; assay type: in vivo, mouse; conditions: healthy athymic nude mice, 50 μCi i.v.
Protocol: Blood half-life was determined by measuring the activity in serial blood samplings. Specifically, healthy female nude mice (8–10 weeks old, 20–25 g in weight, n = 3) were injected via the tail vein with 50 μCi [^131I]-I2-PARPi in 200 μL of solution PBS/PEG300 (10:1). The blood was sampled from the saphenous vein at 5, 15, 30, 60, 120, and 240 min post injection. The blood was weighed and radioactivity was measured on a Wizard 2470 Automatic Gamma Counter (Perkin Elmer, Waltham, MA). Measurements in counts per minute were calculated as the mean %ID/g. The blood half-life was calculated using Prism 6.0c (GraphPad Software, La Jolla, CA).

T1 sequence (P09874 whole entry): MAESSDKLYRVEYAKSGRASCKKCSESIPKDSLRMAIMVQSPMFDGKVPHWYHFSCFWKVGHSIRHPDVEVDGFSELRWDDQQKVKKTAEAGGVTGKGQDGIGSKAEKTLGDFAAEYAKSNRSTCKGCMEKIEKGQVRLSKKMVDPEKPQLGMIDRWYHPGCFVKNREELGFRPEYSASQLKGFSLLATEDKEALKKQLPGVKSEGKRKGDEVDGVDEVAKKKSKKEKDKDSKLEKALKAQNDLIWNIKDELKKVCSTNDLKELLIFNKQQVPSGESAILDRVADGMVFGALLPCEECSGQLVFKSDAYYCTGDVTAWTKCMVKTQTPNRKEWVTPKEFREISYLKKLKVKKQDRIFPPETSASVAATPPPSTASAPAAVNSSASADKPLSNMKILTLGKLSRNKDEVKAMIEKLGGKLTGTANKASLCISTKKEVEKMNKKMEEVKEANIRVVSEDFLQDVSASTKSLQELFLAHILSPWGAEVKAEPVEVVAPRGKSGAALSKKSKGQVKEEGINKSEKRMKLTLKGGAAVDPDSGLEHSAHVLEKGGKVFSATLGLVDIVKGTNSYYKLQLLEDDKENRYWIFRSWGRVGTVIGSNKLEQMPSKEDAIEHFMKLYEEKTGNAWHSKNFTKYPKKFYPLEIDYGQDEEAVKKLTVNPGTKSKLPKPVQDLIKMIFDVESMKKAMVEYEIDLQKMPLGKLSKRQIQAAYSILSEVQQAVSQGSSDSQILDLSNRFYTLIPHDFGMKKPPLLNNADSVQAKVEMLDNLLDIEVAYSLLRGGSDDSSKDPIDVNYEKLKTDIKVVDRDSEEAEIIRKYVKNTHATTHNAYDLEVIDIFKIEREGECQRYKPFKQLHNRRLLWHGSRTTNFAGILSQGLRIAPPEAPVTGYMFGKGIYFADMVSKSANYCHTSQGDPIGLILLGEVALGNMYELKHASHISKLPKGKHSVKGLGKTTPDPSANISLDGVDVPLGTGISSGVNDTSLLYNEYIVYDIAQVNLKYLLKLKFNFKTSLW

## O=C(c1cccc(I)c1)N1CCN(C(=O)c2cc(Cc3n[nH]c(=O)c4ccccc34)ccc2F)CC1 [I1-PARPi, 4-(4-fluoro-3-(4-(3-iodobenzoyl)piperazine-1-carbonyl)benzyl)phthalazin-1(2H)-one]
[1]
  fraction unbound at 4 h, 10 μM: 0.096 ± 0.015

## O=C(c1ccc(I)cc1)N1CCN(C(=O)c2cc(Cc3n[nH]c(=O)c4ccccc34)ccc2F)CC1 [I2-PARPi, 4-(4-fluoro-3-(4-(4-iodobenzoyl)piperazine-1-carbonyl)benzyl)phthalazin-1(2H)-one]
[1]
  fraction unbound at 4 h, 10 μM: 0.115 ± 0.001
[2]; I2-PARPi 125 mg/kg 30 min before PARPi-FL 2.5 mg/kg, tumors resected 1 h post injection, vs PARPi-FL alone
  reduction of PARPi-FL tumor fluorescence in vivo: 78 ± 4%

## O=C(Cc1cccc(I)c1)N1CCN(C(=O)c2cc(Cc3n[nH]c(=O)c4ccccc34)ccc2F)CC1 [I3-PARPi, 4-(4-fluoro-3-(4-(2-(3-iodophenyl)acetyl)piperazine-1-carbonyl)benzyl)phthalazin-1(2H)-one]
[1]
  fraction unbound at 4 h, 10 μM: 0.07 ± 0.001
[3]
  IC50: 34 ± 3 nM
[4]
  CHI (chromatographic hydrophobicity index): 66.7

## O=C(Cc1ccc(I)cc1)N1CCN(C(=O)c2cc(Cc3n[nH]c(=O)c4ccccc34)ccc2F)CC1 [I4-PARPi, 4-(4-fluoro-3-(4-(2-(4-iodophenyl)acetyl)piperazine-1-carbonyl)benzyl)phthalazin-1(2H)-one]
[1]
  fraction unbound at 4 h, 10 μM: 0.05 ± 0.003
[3]
  IC50: 74 ± 5 nM
[4]
  CHI (chromatographic hydrophobicity index): 66.7

## O=C(CCc1cccc(I)c1)N1CCN(C(=O)c2cc(Cc3n[nH]c(=O)c4ccccc34)ccc2F)CC1 [I5-PARPi, 4-(4-fluoro-3-(4-(3-(3-iodophenyl)propanoyl)piperazine-1-carbonyl)benzyl)phthalazin-1(2H)-one]
[1]
  fraction unbound at 4 h, 10 μM: 0.078 ± 0.014
[3]
  IC50: 107 ± 4 nM
[4]
  CHI (chromatographic hydrophobicity index): 71.6

## O=C(CCc1ccc(I)cc1)N1CCN(C(=O)c2cc(Cc3n[nH]c(=O)c4ccccc34)ccc2F)CC1 [I6-PARPi, 4-(4-fluoro-3-(4-(3-(4-iodophenyl)propanoyl)piperazine-1-carbonyl)benzyl) phthalazin-1(2H)-one]
[1]
  fraction unbound at 4 h, 10 μM: 0.047 ± 0.005
[3]
  IC50: 47 ± 5 nM
[4]
  CHI (chromatographic hydrophobicity index): 71.6

## O=C(c1cc(Cc2n[nH]c(=O)c3ccccc23)ccc1F)N1CCN(C(=O)C2CC2)CC1 [Olaparib]
U87 MG cells; 25 µM
  reduction of PARPi-FL uptake (fluorescence signal): 73 ± 11%
U87 MG cells; PARPi-FL 250 nM, inhibitor 25 μM (100-fold), U87 MG cells
  reduction of PARPi-FL uptake (fluorescence signal): 73 ± 10%
[4]; derived from CHI by equation
  logPCHI: 0.8

## Cc1cc(C)n2c1C=C1C=CC(CCC(=O)N3CCN(C(=O)c4cc(Cc5n[nH]c(=O)c6ccccc56)ccc4F)CC3)=[N+]1[B-]2(F)F [PARPi-FL, reference compound]
[2]; PARPi-FL 2.5 mg/kg alone
  tumor fluorescence, average radiant efficiency: 2.03 × 10^8 ± 1.84 × 10^7

## O=C(c1ccc([131I])cc1)N1CCN(C(=O)c2cc(Cc3n[nH]c(=O)c4ccccc34)ccc2F)CC1 [[^131I]-I2-PARPi]
[5]
  in vitro blood stability: stability of the drug over the course of 120 min
[6]
  uptake in brain: 0.007 ± 0.002 %ID/g
  uptake in muscle: 0.04 ± 0.02 %ID/g
  uptake in tumor: 0.50 ± 0.08 %ID/g
[7]
  uptake in brain: 0.01 ± 0.00 %ID/g and 0.011 ± 0.003 %ID/g
  uptake in liver: 2.35 ± 0.57 %ID/g and 2.4 ± 0.6 %ID/g
  uptake in muscle: 0.03 ± 0.01 %ID/g and 0.033 ± 0.012 %ID/g
  uptake in thyroid: 0.24 ± 0.06 %ID/g
  uptake in tumor: 0.43 ± 0.06 %ID/g
[8]
  alpha blood half-life: 14.3 min
  beta blood half-life: 94.6 min
  share of alpha phase: 96.25%
  share of beta phase: 3.75%
  weighted blood half-life t1/2(weighted): 17.1 min
